System: Plasmodium berghei
Assay: Luciferase/luciferin-expressing antifolate-resistant parasites were used to infect a culture of HepG2 cells that were pre-incubated with compounds. Infected hepatocytes emit light due to the luciferase reaction. Assay results are presented as the percent inhibition of light emission compared to control. […]
Type: functional
Details: sporozoite; for IC90: read-out: LUCIFERASE INFECTION ASSAY - IC90
[1] = read-out: LUCIFERASE INFECTION ASSAY - IC50

| SMILES | IC90 [µM] | IC50 [1] [µM] | further results |
| --- | --- | --- | --- |
| CN(C)c1ccc(/C=C(\C#N)C(=O)c2ccc(-n3nncc3C34CC5CC(CC(C5)C3)C4)cc2)cc1 | > 10 |  | IC50 (FFLUC_HILL_SLOPE 2.12, FFLUC_R_SQUARED 0.418, PBLUC_HILL_SLOPE 11.3, PBLUC_R_SQUARED 0.267, read-out: LUCIFERASE INFECTION ASSAY - IC50): > 10 µM |
| Cn1cccc1C(=O)NC(=O)COC(=O)CCNC(=O)c1ccc([N+](=O)[O-])cc1 | > 10 | > 10 |  |
| OC(c1cn2cc(-c3ccc(F)cc3)nc2s1)(C(F)(F)F)C(F)(F)F | 6.57 |  | IC50 (PBLUC_HILL_SLOPE 0.791, PBLUC_R_SQUARED 0.914, read-out: LUCIFERASE INFECTION ASSAY - IC50): 0.408 µM |
| CC(c1nc(N)nc(N(C)C)n1)N1CCN(C(c2ccc(F)cc2)c2ccc(F)cc2)CC1 (stereo not given) | 3.79 |  | IC50 (PBLUC_HILL_SLOPE 16.2, PBLUC_R_SQUARED 0.638, read-out: LUCIFERASE INFECTION ASSAY - IC50): 3.31 µM |
| Cc1ccccc1C(C)NC(=O)c1c[nH]c(=S)n1-c1ccccc1 (stereo not given) | > 10 | > 10 |  |
| CCc1cc(=O)oc2cc(OCc3csc(N(C(C)=O)c4cccc(C)c4)n3)ccc12 | > 10 | > 10 |  |
| CC(C)(C(=O)NCCc1ccccc1)n1cc(-c2ccc3c(c2)OCCO3)cn1 | > 10 | > 10 |  |
| CN(Cc1nc2ccccc2s1)C(=O)CSc1nnc(N2CCCCC2)n1-c1ccccc1 | > 10 | > 10 |  |
| Oc1c(C(Nc2ccccn2)c2ccsc2)cc(Cl)c2cccnc12 (stereo not given) | > 8.97 |  | IC50 (FFLUC_HILL_SLOPE 4.25, FFLUC_R_SQUARED 0.273, HEPG2TOX_HILL_SLOPE 7.18, HEPG2TOX_R_SQUARED 0.784, PBLUC_HILL_SLOPE 2.69, PBLUC_R_SQUARED 0.266, read-out: LUCIFERASE INFECTION ASSAY - IC50): 4.02 µM |
| CC(C)c1ccc(OCC(=O)Nc2ccccc2C(F)(F)F)cc1 | > 9.78 | > 9.78 |  |
| CNC(=O)c1nn(CCc2ccccc2)c2c1CC(NCCC(C)C)CC2 (stereo not given) | > 8.95 | > 8.95 |  |
| O=C1CC2(CCCC2)C(=O)N1CC(O)c1ccccc1 (stereo not given) | > 10 | > 10 |  |
| O=C(Nc1cccc(C(F)(F)F)c1)Nc1ccc2nc(-c3ccc(F)c(Cl)c3)nn2c1 | 5.2 |  | IC50 (PBLUC_HILL_SLOPE 7.54, PBLUC_R_SQUARED 0.257, read-out: LUCIFERASE INFECTION ASSAY - IC50): 3.88 µM |
| Cc1onc(-c2ccccc2)c1-c1ccnn1C(=O)Nc1cccc(C(F)(F)F)c1 | > 8 |  | IC50 (PBLUC_HILL_SLOPE 13.1, PBLUC_R_SQUARED 0.207, read-out: LUCIFERASE INFECTION ASSAY - IC50): 7.19 µM |
| COc1ccc(-c2cncc(-c3ccc(N)cc3)n2)cc1 | 11.7 | 7.82 |  |
| CCN(CC)S(=O)(=O)c1ccc(OC(C)C)c(NC(=O)C2=CN3CCS(=O)(=O)N=C3C=C2)c1 | 4.52 |  | IC50 (PBLUC_HILL_SLOPE 11.8, PBLUC_R_SQUARED 0.349, read-out: LUCIFERASE INFECTION ASSAY - IC50): 3.75 µM |
| FC(F)(F)Oc1cccc(-c2cnc3ccc(-c4cncnc4)nn23)c1 | 3.91 |  | IC50 (PBLUC_HILL_SLOPE 4.12, PBLUC_R_SQUARED 0.479, read-out: LUCIFERASE INFECTION ASSAY - IC50): 2.29 µM |
| O=C1CN(C(=O)CNC(c2ccccc2)c2cccs2)c2ccccc2N1 (stereo not given) | > 10 | > 10 |  |
| CC(C)c1cccc(-c2nc3ccnc(NCc4ccc(N(C)C)cc4)c3[nH]2)c1 | > 10 |  | IC50 (HEPG2TOX_HILL_SLOPE 6.72, HEPG2TOX_R_SQUARED 0.795, PBLUC_HILL_SLOPE 11.9, PBLUC_R_SQUARED 0.428, read-out: LUCIFERASE INFECTION ASSAY - IC50): 8.78 µM |
| COc1cc2c(cc1OC)C(c1ccccc1)N(CC(=O)Nc1c(C)cc(C)cc1Cl)CC2 (stereo not given) | 9.2 |  | IC50 (HEPG2TOX_HILL_SLOPE 7.81, HEPG2TOX_R_SQUARED 0.408, PBLUC_HILL_SLOPE 9.86, PBLUC_R_SQUARED 0.196, read-out: LUCIFERASE INFECTION ASSAY - IC50): 7.36 µM |
| CCOC(=O)NNC(=S)Nc1ccccc1OC | > 12.3 | > 12.3 |  |
| CN(C)c1ccc(/C=C/c2ccc3c4ccccc4ccc3[n+]2-c2ccccc2)cc1 | 1.23 | 1.07 |  |
| COc1ccc(C(=O)/C(=C\c2ccc([N+](=O)[O-])cc2)c2nc3ccccc3[nH]2)cc1 | 9.32 |  | IC50 (FFLUC_HILL_SLOPE 7.19, FFLUC_R_SQUARED 0.76, HEPG2TOX_HILL_SLOPE 6.54, HEPG2TOX_R_SQUARED 0.945, PBLUC_HILL_SLOPE 13.7, PBLUC_R_SQUARED 0.214, read-out: LUCIFERASE INFECTION ASSAY - IC50): 7.93 µM |

| SMILES | IC90 [µM] | IC50 [1] [µM] | further results |
| --- | --- | --- | --- |
| Cc1ccc(-c2nonc2NC(=O)c2sc3ccccc3c2Cl)cc1 | 6.55 |  | IC50 (HEPG2TOX_HILL_SLOPE 10.3, HEPG2TOX_R_SQUARED 0.121, PBLUC_HILL_SLOPE 5.87, PBLUC_R_SQUARED 0.389, read-out: LUCIFERASE INFECTION ASSAY - IC50): 4.5 µM |
| CCOc1cccc(-c2cn3c(-c4ccc(OC)cc4)cnc3cn2)c1 | 0.375 |  | IC50 (HEPG2TOX_HILL_SLOPE 0.801, HEPG2TOX_R_SQUARED 0.8, PBLUC_HILL_SLOPE 14.9, PBLUC_R_SQUARED 0.835, read-out: LUCIFERASE INFECTION ASSAY - IC50): 0.324 µM |
| Cc1cccc(C(=O)Nc2cc(S(=O)(=O)N3CCOCC3)ccc2N2CCCCC2)n1 | > 10 |  | IC50 (HEPG2TOX_HILL_SLOPE 0.0521, HEPG2TOX_R_SQUARED 0.112, read-out: LUCIFERASE INFECTION ASSAY - IC50): > 10 µM |
| N#Cc1ccnc(N2CCN(C(=O)c3cccc(-n4cccc4)c3)CC2)c1 | 2.2 |  | IC50 (HEPG2TOX_HILL_SLOPE 1.62, HEPG2TOX_R_SQUARED 0.96, PBLUC_HILL_SLOPE 2.46, PBLUC_R_SQUARED 0.842, read-out: LUCIFERASE INFECTION ASSAY - IC50): 0.901 µM |
| CNc1snc(C)c1C(=O)NC(C)c1ccc(OC(F)F)cc1 (stereo not given) | 9.96 | 8.84 |  |
| CC1CCCCC1NC(=O)/C(C#N)=C/C=C/c1ccccc1[N+](=O)[O-] (stereo not given) | > 10 |  | IC50 (HEPG2TOX_HILL_SLOPE 14.8, 8.85, HEPG2TOX_R_SQUARED 0.251, 0.979, PBLUC_HILL_SLOPE 2.96, PBLUC_R_SQUARED 0.503, read-out: LUCIFERASE INFECTION ASSAY - IC50): 8.55 µM |
| OC(COc1ccccc1F)CN1CCN(Cc2csc3ccccc23)CC1 (stereo not given) | > 10 |  | IC50 (PBLUC_HILL_SLOPE 13.5, PBLUC_R_SQUARED 0.264, read-out: LUCIFERASE INFECTION ASSAY - IC50): > 10 µM |
| Cc1onc(-c2ccccc2)c1-c1ccnc(-c2ccc(Cl)cc2)n1 | 4.54 |  | IC50 (HEPG2TOX_HILL_SLOPE 2.45, HEPG2TOX_R_SQUARED 0.972, PBLUC_HILL_SLOPE 2.42, PBLUC_R_SQUARED 0.716, read-out: LUCIFERASE INFECTION ASSAY - IC50): 1.83 µM |
| CC(OC(=O)c1n[nH]c(=O)c2ccccc12)C(=O)N(CCC#N)c1ccccc1 (stereo not given) | > 10 | > 10 |  |
| Nc1c(C(=O)c2ccc(Cl)cc2)sc2nc3c(c(-c4cccs4)c12)CCCC3 | > 7.77 |  | IC50 (FFLUC_HILL_SLOPE 44.8, FFLUC_R_SQUARED 0.458, PBLUC_HILL_SLOPE 1.88, PBLUC_R_SQUARED 0.367, read-out: LUCIFERASE INFECTION ASSAY - IC50): 5.01 µM |
| CC(C)c1ccc(/C=C/c2ccc(=O)[nH]n2)cc1 | 0.563 |  | IC50 (HEPG2TOX_HILL_SLOPE 1.26, HEPG2TOX_R_SQUARED 0.973, PBLUC_HILL_SLOPE 20.6, PBLUC_R_SQUARED 0.746, read-out: LUCIFERASE INFECTION ASSAY - IC50): 0.506 µM |
| CC(NC(=O)NCc1ccccc1)c1ccc2ccccc2c1 (stereo not given) | > 10 | > 10 |  |
| Cc1ccc(O)c(C(=O)NCC(C)c2ccccc2)c1 (stereo not given) | 9.34 |  | IC50 (HEPG2TOX_HILL_SLOPE 0.817, HEPG2TOX_R_SQUARED 0.794, PBLUC_HILL_SLOPE 3.45, PBLUC_R_SQUARED 0.175, read-out: LUCIFERASE INFECTION ASSAY - IC50): 4.94 µM |
| CCNC(=O)N1CCc2nc(Nc3cc(Cl)cc(Cl)c3)ncc2C1 | > 9.01 | > 9.01 |  |
| c1cc(CNc2ncnc3nc[nH]c23)cc(COCc2ccco2)c1 | > 10 |  | IC50 (HEPG2TOX_HILL_SLOPE 6.82, HEPG2TOX_R_SQUARED 0.307, PBLUC_HILL_SLOPE 1.97, PBLUC_R_SQUARED 0.21, read-out: LUCIFERASE INFECTION ASSAY - IC50): 6.9 µM |
| COCC/N=c1\scc(-c2ccc(OC(F)F)cc2)n1/N=C/c1ccccc1F | > 10 | > 10 |  |
| COc1cccc(CN2CCN3C=C(C(=O)Nc4ccc(Oc5ccccc5)cc4)OC3=NC2=O)c1 | > 10 | > 10 |  |
| Cc1ccc(Nc2nc(CSc3nc4ccccc4c(=O)n3CCCCCCC(C)C)cs2)cc1 | > 10 |  | IC50 (PBLUC_HILL_SLOPE 4.69, PBLUC_R_SQUARED 0.352, read-out: LUCIFERASE INFECTION ASSAY - IC50): 7.63 µM |
| CCOC(=O)c1c(NC(=O)C(C)N2CCN(C(=O)c3ccco3)CC2)sc2c1CCCC2 (stereo not given) | > 10 |  | IC50 (PBLUC_HILL_SLOPE 16.5, PBLUC_R_SQUARED 0.188, read-out: LUCIFERASE INFECTION ASSAY - IC50): 9.7 µM |
| O=[N+]([O-])c1cnc(Sc2nnc(SCC3CC3)s2)s1 | > 9.93 |  | IC50 (PBLUC_HILL_SLOPE 11.6, PBLUC_R_SQUARED 0.0358, read-out: LUCIFERASE INFECTION ASSAY - IC50): 9.69 µM |
| Cc1nc(-c2cccs2)sc1NC(=O)Nc1ccc(Cl)cc1 | > 9.43 | > 9.43 |  |
| CSc1nccc(-c2ccc(S(=O)(=O)N3CCCCC3)s2)n1 | > 9.28 | > 9.28 |  |
